The values that follow come from patent US20120070511A1, “MITOCHONDRIAL INHIBITORS AND USES THEREOF” (priority 2009, published 2012).

What all share (type): cell-based
The subject of data set [1] is multiple myeloma cell lines (MM.1S, 8226, KMS-11, U266). How it is done: (§1) Cytotoxicity assay: Cells were incubated for 24 hr at 37° C. in 5% CO2 at which time drug treatments began and continued for 24 hr. At this time attached cells were trypsinized and combined with their respective culture media while suspension cells were directly transferred to a tube followed by centrifugation at 400 g for 5 min. The pellets were resuspended in 1 ml of Hanks solution and analyzed by Vi-Cell (Beckman Coulter, Fullerton, Calif.) cell viability analyzer.

Data set [2] deals with non-myeloma cell lines (NALM6, 143B, MDA-MB-435, 1420). The note with it: higher concentrations; all cell types. How it is done:
as §1

Data set [3] concerns MM cell lines (MM1.S, 8226, KMS-11, U266). Description: Measurement of cytoplasmic calcium (indo-1 fluorescence ratio 400/500 nm). The note with it: MM cell lines. Here is the method:
(§2) Measurement of cytoplasmic calcium: Cytoplasmic Ca^2+ concentration was estimated by using the cell permeant fluorochrome indo-1-AM (Invitrogen, Carlsbad, Calif.). When excited at 355 nm, the maximum emission of indo-1 shifts from 500 nm to 400 nm following its binding to free Ca^2+. Thus, the ratio of reading at 400 nm and 500 nm correlates with concentration of cytoplasmic Ca^2+. Experiments were performed in cells loaded with indo-1 by incubating them with 2.5 μM of this fluorochrome at 37° C. for 45 min. Cells were then centrifuged at 400 g for 5 min and resuspended in their growth medium followed by distribution of 100 μl of aliquots into 96 well optical bottom plates (Nalge Nunc, Int., Rochester, N.Y.) and fluorescence was measured by Spectra Max Gemini Plus (Molecular Devices, Sunnyvale, Calif.). The average of triplicates from untreated samples was used as control reading and increase in cytoplasmic Ca^2+ was calculated as percent increase from control samples.

The subject of data set [4] is non-myeloma cell lines (NALM6, MDA-MB-435, 143B, 1420). Described as above. The following applies: non-myeloma cell lines (oligomycin: all cell lines). Here is the method:
as §2

The subject of data set [5] is CHOP/GADD153 and cleaved caspase 3 in 4 MM cell lines. Description: Western blot of CHOP/GADD153 and cleaved caspase 3 (UPR-mediated apoptosis). The following applies: all 4 MM cell lines. How it is done: Western Blot analysis: Cells are plated at 10^4 cell/cm^−2 for attached cells and 3×10^5/ml for suspension cells and grown under drug treatment for the indicated times. At the end of the treatment period, cells are collected and lysed with 1% SDS in 80 mM Tris-HCL (ph 7.4) buffer supplemented with a proteinase inhibitor cocktail. DNA is fragmented by sonication and protein concentrations are measured by microBCA protein assay kit (Pierce, Rockford, Ill.). Samples are mixed with 3× Laemmli sample buffer (Cell Signaling, Danvers, Mass.) and 40 μg of protein was run on a 12% SDS-polyacrylamide gel. Gels are transferred to nitrocellulose membranes (Amersham, Piscataway, N.J.) and probed with monoclonal rabbit anti-GRP94, anti GRP-78, anti-PDI, anti-CHOP/GADD153, anti-cleaved caspase 3 (Cell Signaling, Danvers, Mass.) and monoclonal mouse anti-β-actin (Sigma, St. Louis, Mo.). Following probing, membranes are washed and incubated with HRP-conjugated secondary antibody (Invitrogen, Carlsbad, Calif.). Following addition of 1:3 diluted femto-chemiluminescent substrate (Pierce, Rockford, Ill.) membranes were exposed to blue autoradiographic film (ISC bioexpress, Kaysville, Utah). Where indicated, membranes were stripped with Stripping Buffer (Pierce, Rockford, Ill.) and reprobed with anti-β-actin (Sigma-Aldrich, St. Louis, Mo.) primary antibody. When needed, the blots were quantified using Bio-Rad gel reader which employs Quality I software (Bio-Rad, Hercules, Calif.).
Background: Immunoblotting shows a protein as a band on a membrane.

Data set [6] has as its system MM.1S cells. Description: Cytoplasmic Ca2+ (indo-1) after CCCP. The note with it: 10 μM CCCP. How it is done: […]. A) ψm potential, B) mitochondrial Ca^2+ and C) cytoplasmic Ca^2+ levels were measured using the fluorochromes JC-1, X-rhod-1 and indo-1, respectively. After 10 min of initial baseline measurement, CCCP was added into each well to achieve a final concentration of 10 μM and changes in fluorescence intensity was assayed for up to 2 h. In the graphs the time point of CCCP addition is marked as ‘0’. The graph is an average of triplicate samples with +SD.
Measurement of cytoplasmic and mitochondrial calcium: Cytoplasmic Ca^2+ concentration was estimated by using the cell permeant ratiometric fluorochrome indo-1-AM (Invitrogen, Carlsbad, Calif., USA) while mitochondrial Ca^2+ was measured by X-Rhod-1-AM (Invitrogen, Carlsbad, Calif., USA). In the latter assay, to normalize mitochondrial Ca^2+ signal to mitochondria number, Mitotracker Green (Invitrogen, Carlsbad, Calif., USA) fluorescence was simultaneously analyzed. Experiments were performed in cells loaded with either 2.5 μM of indo-1 or 5 μM X-rhod-1 and 250 nM of Mitotracker at 37° C. for 45 min. Cells were, then, centrifuged at 400 g for 5 min and resuspended in their growth medium followed by distribution of 100 μl of aliquots into 96 well optical bottom plates (Nalge Nunc, Int., Rochester, N.Y., USA) and fluorescence was measured by Spectra Max Gemini Plus (Molecular Devices, Sunnyvale, Calif., USA). The average of triplicates from untreated samples was used as control reading and increase in cytoplasmic or mitochondrial Ca^2+ was calculated as percent increase from control samples.

The subject of data set [7] is MM.1S and REH cells. Description: ATP levels after 6 h of CCCP treatment. The following applies: 6 h CCCP; REH versus MM.1S. Here is the method:
A) Reversal of CCCP induced toxicity by either 10 μM BAPTA-AM or 50 μM of Z-VAD was investigated using trypan blue exclusion assays. The bars represent the average of triplicate samples +SD. B) ATP levels were assayed following 6 h of treatment with indicated concentrations of CCCP. The bars represent the average of triplicate samples +SD. C) Induction of UPR, activation of AMPK pathway and cleavage of caspase 3 was analyzed by western blots following 24 h treatment with indicated concentrations of CCCP in MM.1S and REH cell lines. β-Actin was used as a loading control. D) The quantification of phosphorylated AMPK and total AMPK bands in the previous panel was done using a Bio-Rad gel reader which employs Quality I software. The bars represent the fold increase in the ratio of p-AMPK/AMPK in treated versus untreated samples from three independent experiments +SD.

Data set [8] concerns CHOP/GADD153 and cleaved caspase 3 in MM.1S, 8226, KMS-11. Description: Western blot of CHOP/GADD153 and cleaved caspase 3 in 3 MM cell lines. The note with it: CCCP. How it is done:
. Induction of UPR-mediated apoptosis following treatment of 3 MM cell lines with four different mitochondrial inhibitors for various time points was assayed by western blot analysis of CHOP and cleaved caspase 3.
Western blot analysis: Western blots were performed. Membranes were probed with monoclonal rabbit anti-GRP94, anti GRP-78, anti-PDI, anti-CHOP/GADD153, anti-cleaved caspase 3 (Cell Signaling, Danvers, Mass., USA) and monoclonal mouse anti-β-actin (Sigma, St. Louis, Mo., USA).

In the case of `N#CC(C#N)=NNc1cccc(Cl)c1` [CCCP], in data set [1] (24 h, MM cells), the “cytotoxic potency compared to the other mitochondrial inhibitors” value is “equipotency in inducing cytotoxicity in MM cells”. For the same compound, in data set [1] (24 h treatment), the “order of sensitivity among MM cell lines” value was “greater in 8226 as compared to MM.1S cells”. Besides, in data set [1] (24 h treatment, all 4 MM cell lines), the “cytotoxicity (cell death)” value is recorded as “more toxic to multiple myeloma cell lines as compared to other cell types”. In data set [2], the “cytotoxicity at higher concentrations” value is “significant toxicity is induced in all cell types”. The “cytoplasmic Ca2+ after mitochondrial inhibitor” value in data set [3] is “immediate increase in cytoplasmic Ca^2+”. Moreover, the “effect on mitochondrial Ca2+ uptake” value in data set [3] (estimated from cytoplasmic Ca2+) is reported as “equally inhibit mitochondrial Ca^2+ uptake”. Besides, the “increase in cytoplasmic Ca2+ after mitochondrial inhibitor” value in data set [4] is “not seen in non-myeloma cell lines except for NALM6”. Further, in data set [5], the “treatment time at which CHOP/GADD153 expression is noted” value is 3 h. For the same compound, in data set [6], the “cytoplasmic Ca2+ levels directly after addition” value is recorded as “go up in both cell types” and the “cytoplasmic Ca2+ levels later (after clearance phase)” value is reported as “remain elevated”. In addition, the ATP levels result in data set [7] is “decreased more significantly in REH cells, as compared to MM.1S cells”. Further, in data set [8], the “CHOP/GADD153 induction compared among the 3 MM cell lines” value was “more profound in MM.1S and 8226 as compared to KMS-11”; the “caspase 3 cleavage compared among the 3 MM cell lines” value is “more rapidly in MM.1S and 8226 versus KMS-11”.
